The values below come from publication PMC3513558 (European journal of medicinal chemistry, 2012).

For the assay, the target named is intracellular HCV NS5B RdRp activity in BHK-NS5B-FRLuc reporter cells (Hepatitis C virus genotype 1b, UniProt P26663). The experiment in a line: BHK-NS5B-FRLuc reporter assay, intracellular NS5B RdRp activity. The assay is classed as cell-based. The following applies: 100 µM, 42 hours, RLuc/FLuc vs DMSO. On the technique in general: Reporter assays use an easily measured gene product as a stand-in for the process of interest.
Sequence of intracellular HCV NS5B RdRp activity in BHK-NS5B-FRLuc reporter cells (P26663 2420-3010): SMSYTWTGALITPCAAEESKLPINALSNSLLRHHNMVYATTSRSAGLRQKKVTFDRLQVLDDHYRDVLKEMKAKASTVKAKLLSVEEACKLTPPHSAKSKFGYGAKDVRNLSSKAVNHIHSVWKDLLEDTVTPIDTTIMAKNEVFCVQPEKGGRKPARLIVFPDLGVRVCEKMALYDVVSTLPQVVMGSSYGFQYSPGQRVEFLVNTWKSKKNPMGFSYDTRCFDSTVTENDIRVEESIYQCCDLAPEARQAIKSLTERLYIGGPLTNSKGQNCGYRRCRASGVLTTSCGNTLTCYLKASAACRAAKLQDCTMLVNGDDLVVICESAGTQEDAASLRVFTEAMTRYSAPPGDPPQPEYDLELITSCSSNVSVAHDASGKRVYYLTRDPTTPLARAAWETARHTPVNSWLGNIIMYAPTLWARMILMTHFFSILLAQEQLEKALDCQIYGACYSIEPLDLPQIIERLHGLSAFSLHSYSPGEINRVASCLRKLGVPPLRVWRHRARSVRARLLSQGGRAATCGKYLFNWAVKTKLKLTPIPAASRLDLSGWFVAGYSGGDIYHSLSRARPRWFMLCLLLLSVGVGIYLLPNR

Structures are written as SMILES. Entries after “also recorded” stand apart in the source; their conditions may differ.

As for `Cc1cc(O)c(C(c2ccc(Cl)c(Cl)c2)c2c(O)cc(C)oc2=O)c(=O)o1` [Compound 8, 3,3'-[(3,4-Dichlorophenyl)methylene]bis(4-hydroxy-6-methyl-2H-pyran-2-one)], the “% Inhibition of intracellular NS5B RdRp activity” value is “did not inhibit; also recorded: No inhibition”.
